Data taken from the supplement of paper PMC10307832.

How the values were obtained:
Experiment in all cases: relative viability (nuclei count vs DMSO), 5 days (fraction); higher = more cells survive
[1] = compound: CC(=O)Nc1cccc(-n2c(=O)n(C3CC3)c(=O)c3c(Nc4ccc(I)cc4F)n(C)c(=O)c(C)c32)c1 [Trametinib] + O=C(CCCCCCC(=O)Nc1ccccc1)NO [Vorinostat] (partner 1 µM)
In short: (§1)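 Values are medians from duplicate plates. Each reflects relative viability, defined as the nuclei count of treated wells over that of vehicle wells. Lung cancer cell lines in 1536-well plates were pin-tool dosed one day after seeding with one drug alone or with a fixed anchor-drug dose plus five library-drug doses (not always all listed) in √10 steps, then fixed, stained and imaged at 4× after 5 days.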

[2] = compound: CN1C=C(C2=CC=CC=C21)/C=C\3/C4=C(C=CC=N4)NC3=O + CS(=O)(=O)CCNCc1ccc(-c2ccc3ncnc(Nc4ccc(OCc5cccc(F)c5)c(Cl)c4)c3c2)o1 [Lapatinib] (partner 2 µM)
In short: as §1

[3] = compound: CN1C=C(C2=CC=CC=C21)/C=C\3/C4=C(C=CC=N4)NC3=O + Cc1nc(Nc2ncc(C(=O)Nc3c(C)cccc3Cl)s2)cc(N2CCN(CCO)CC2)n1 [Dasatinib] (partner 0.075 µM)
In short: as §1

[4] = compound: CN1C=C(C2=CC=CC=C21)/C=C\3/C4=C(C=CC=N4)NC3=O + O=C(CCCCCCC(=O)Nc1ccccc1)NO [Vorinostat] (partner 1 µM)
In short: as §1

Cell Line	relative viability ([1]; first compound 0.0025 µM)	relative viability ([1]; first compound 0.007906 µM)	relative viability ([1]; first compound 0.025 µM)	relative viability ([1]; first compound 0.07906 µM)	relative viability ([1]; first compound 0.25 µM)	relative viability ([2]; first compound 0.02 µM)	relative viability ([2]; first compound 0.06325 µM)	relative viability ([2]; first compound 0.2 µM)	relative viability ([2]; first compound 0.6325 µM)	relative viability ([2]; first compound 2 µM)	relative viability ([3]; first compound 0.02 µM)	relative viability ([3]; first compound 0.06325 µM)	relative viability ([3]; first compound 0.2 µM)	relative viability ([3]; first compound 0.6325 µM)	relative viability ([3]; first compound 2 µM)	relative viability ([4]; first compound 0.02 µM)	relative viability ([4]; first compound 0.06325 µM)	relative viability ([4]; first compound 0.2 µM)	relative viability ([4]; first compound 0.6325 µM)	relative viability ([4]; first compound 2 µM)
201T	0.945	0.833	0.736	0.732	0.785	0.993	1.05	1.04	1.06	1.04	0.587	0.533	0.504	0.531	0.413	1.04	0.879	1.03	1.04	1.05
A549	–	–	–	–	–	1.08	0.873	0.91	0.932	1.05	–	–	–	–	–	–	–	–	–	–
A-427	0.948	0.896	0.723	0.501	0.51	0.972	1.04	–	0.998	1.07	0.696	0.664	–	0.644	0.86	0.89	0.845	–	0.901	0.813
ABC-1	0.798	0.898	0.562	0.613	0.349	1.39	1.16	1.12	1.25	1.28	0.484	0.424	0.53	0.562	0.56	1.29	0.899	0.926	1.05	0.834
BEN	0.62	0.57	0.49	0.57	0.624	0.685	0.718	0.559	0.585	0.785	0.263	0.275	–	0.259	0.314	0.547	0.541	0.571	0.636	0.574
CAL-12T	0.728	0.637	0.394	0.41	0.265	0.652	0.625	0.574	0.717	0.839	0.501	0.302	0.347	0.285	0.273	0.652	0.675	0.703	0.873	0.679
COR-L23	0.463	0.465	0.529	0.421	0.312	0.973	0.92	1.16	0.923	1.12	0.551	0.449	0.494	0.51	0.529	0.452	0.433	0.42	0.479	0.396
COR-L 105	0.715	0.747	0.52	0.484	0.379	0.33	0.334	0.362	0.344	0.397	0.306	0.298	0.273	0.34	0.367	0.845	0.682	0.774	0.793	0.768
Calu-6	–	–	–	–	–	1.15	1	1	0.968	1.01	–	–	–	–	–	–	–	–	–	–
ChaGo-K-1	0.659	0.623	0.685	0.731	0.418	–	–	–	–	–	0.477	0.544	0.418	0.587	0.576	0.71	0.772	0.627	0.759	0.769
EBC-1	–	–	–	–	–	0.197	0.201	0.177	0.232	0.2	–	–	–	–	–	–	–	–	–	–
EKVX	0.63	0.442	0.365	0.405	0.321	0.221	0.148	0.156	0.188	0.167	0.411	0.427	0.464	0.449	0.358	0.537	0.627	0.641	0.631	0.638
EMC-BAC-2	0.742	0.602	0.448	–	0.326	0.883	0.91	0.934	0.836	0.921	0.356	0.323	0.32	0.332	0.407	0.849	0.441	0.39	0.261	0.214
EPLC-272H	0.455	0.368	0.233	0.148	0.162	0.979	0.819	–	0.995	0.883	0.344	0.41	0.237	–	0.355	0.486	0.379	0.465	–	0.404
H3255	0.903	0.799	0.509	0.709	0.905	0.267	0.269	0.205	0.232	0.209	0.438	0.349	0.323	0.324	0.322	1.03	–	0.876	0.749	0.774
HARA	0.387	0.403	0.298	0.251	0.154	0.703	0.653	0.665	0.857	0.768	0.313	0.265	–	0.254	0.244	0.511	0.524	0.531	0.491	0.5
HCC-15	0.814	0.549	0.395	0.276	0.275	0.827	0.71	0.903	0.886	0.932	0.53	0.577	0.565	0.544	0.496	0.915	0.824	0.867	0.74	0.706
HCC-44	1.08	1.06	1.09	0.909	0.808	0.912	0.963	0.928	0.834	0.9	–	–	–	–	–	1.03	1.09	1.1	1.12	1.02
HCC-78	0.447	0.377	0.382	0.433	0.414	0.965	0.288	0.46	0.53	0.689	0.317	0.578	–	0.34	0.37	0.431	0.46	0.381	0.424	0.427
